Source: patent US20130137975A1, “PET IMAGING” (OSI PHARMACEUTICALS, LLC, priority 2010, published 2013)
Where two headings read alike, the source gives them in different places. One block for each molecule: values may come before it.

Key:
H292 cells [1] = experiment: 3H-2-deoxyglucose uptake assay in H292 cells; format: cell-based; settings: for 3H-2-deoxyglucose uptake (FIG. 16): 30 minute treatment, selected concentrations of each agent
Protocol: (§1) H292 and H441 cells were seeded in 12 well microtiter plates (Becton Dickinson) at 9.0×10^5 cells per well in normal glucose (11.1 mM) media for 6 hours (n=3 wells/group). The media was then changed to 5.5 mM glucose media and the cells were allowed to equilibrate overnight. On the day of the assay the media was again removed and replaced with 0.0 mM glucose (glucose starvation) for three hours. […] After a 5, 30, or 45-minute exposure the media was removed, the cells placed on ice and washed with ice-cold PBS buffer solution. The PBS was then removed and the cells were lysed in RIPA buffer for 15 minutes on ice. The lysates were harvested and counted in a Packard Liquid Scintillation counter.

NCI H292 xenografts = experiment: tumor growth of NCI H292 xenografts under daily treatment; format: in vivo, mice; settings: daily treatment with 60 mg/kg
Description: (§2) Palpable tumors were evident approximately 10 days post implant. When the tumors achieved a volume of approximately 300 mm^3, the animals were sorted, randomized, and placed on study.

NCI-H441 xenografts = experiment: tumor growth of NCI-H441 xenografts under daily treatment; format: in vivo, mice; settings: daily treatment with 60 mg/kg
Description: as §2

NCI-H441 cells = experiment: 3H-2-deoxyglucose uptake assay in H441 cells; format: cell-based; settings: 30 minutes after treatment; higher doses than in NCI H292 cells
Protocol: as §1

IGF-1R = IGF-1R (Homo sapiens, UniProt P08069); settings: 1 μM OSI-906; panel of 116 kinases; cited from earlier work
pIGF-1R = target: T1, pIGF-1R (Homo sapiens, UniProt P08069); experiment: Western blot of NCI-H292 cells, target inhibition; format: cell-based
T1 construct: endogenous in cells; host or cells: NCI-H292

H292 cells [2] = experiment: analysis for cell death by FACS; format: cell-based; settings: 1.0-30 μM, compared to 0.05% DMSO controls
H292 tumors = experiment: 18F-FDG biodistribution study, H292 tumors; format: in vivo, athymic nu/nu mice; settings: 60 mg/kg oral; between 2 and 8 hours post treatment; scintillation counting
Protocol: Palpable tumors were evident approximately 10 days post implant. […] Mice were fasted for 12-16 hours prior to dosing with the radiopharmaceutical. […] Mice were kept isolated and under a warming lamp at a temperature of approximately 30° C. One hour before the desired sacrifice time, the mice were dosed with 4-6 μCi of ^18F-FDG via the lateral tail vein. The mice were sacrificed 60 minutes later via CO2 asphyxiation, and selected tissues removed, rinsed, weighed and then placed into scintillation tubes. The samples were counted using a Cobra II Scintillation Counter and the % injected dose per gram of tissue calculated against prepared standards.

pAKT, pS6, pERK, AS160 = experiment: Western blot of H292 in vitro cell lysates, downstream markers of altered glycolysis; format: cell-based
phospho-IGF1-R = target: T2, phospho-IGF1-R (Homo sapiens, UniProt P08069); experiment: target inhibition in H292 tumor lysates in vivo (RTK array analysis); set-up: species or system mice; settings: for inhibition at 60 mg/kg: NCI-H292, read-out: target inhibition of phospho-IGF1-R, single dose 60 mg/kg
T2 construct: endogenous in cells; host or cells: NCI-H292 cells grown as subcutaneous xenograft tumours in athymic nu/nu mice
Description: All animal studies were under the approval of the Institutional Animal Care and Use Committee in an American Association for Accreditation of Laboratory Animal Care-accredited vivarium and in accordance with the Institute of Laboratory Animal Research (Guide for Care and Use of Laboratory Animals, NIH, Bethesda, Md.). Mice were 8-week-old athymic nu/nu mice (Charles Rivers) and were housed in clean specific pathogen free rooms in groups of four mice per cage. The mice were allowed access to sterile rodent chow and water ad libitum except when undergoing FDG-PET imaging, as noted. The H292 and H441 cells were harvested from T225 flasks at 90% confluency and implanted in the right thigh subcutaneously at a concentration of 1.0×10^7 cells per 100 μL of PBS inoculum. […] When the tumors achieved a volume of approximately 300 mm^3, the animals were sorted, randomized, and placed on study.
Tumor lysates were prepared according to the manufacturer's protocol (Proteome Profiler, R&D Systems). Briefly, tumor lysates were solubilized in NP-40 lysis buffer and re-suspended for 30 minutes at 2° C. with rocking. This preparation was centrifuged at 14,000×g for 5 minutes and transferred to a clean tube. Protein concentration was then determined by BCA assay. The lysate was then incubated with the Human Phospho-RTK array at 1000 μg overnight at 2° C. with rocking. The arrays were then washed, and incubated with freshly prepared detection antibody for two hours. After washing, the arrays were exposed to film for 0.5-3.0 minutes. The developed arrays were then quantitfied using a Kodak scanner and image analysis software.

pERK, pAKT, pS6, AS160 = experiment: Western blot of NCI-H292 tumor lysates in vivo, markers of altered glycolysis; set-up: species or system mice; settings: 60 mg/kg
Protocol: as §2
Tumors were homogenized in 1 mL of TGH buffer per 200 mg of tissue on ice at 15,000 rpm until total homogenization was achieved. For analysis of IGF-1R and IR phosphorylation status, after pre-clearing by centrifugation (14,000 rpm/5 minutes), the lysate was incubated overnight at 4° C. with an antiphosphotyrosine antibody, and 30 μL Protein A-sephorase was then added and further incubated for an additional two hours. […] Antibodies were obtained from Santa Cruz Biotechnology.

H292 xenografts = experiment: 18F-FDG-PET imaging of H292 xenografts; format: in vivo, athymic nu/nu mice; settings: 60 mg/kg oral; 2 and 4 hours post dosing
Protocol: (§3) Palpable tumors were evident approximately 10 days post implant. […] Mice were fasted from food 12 hours prior to imaging with ^18F-FDG (VUIIS Cyclotron). […] After dosing, the mice were kept isolated in a chamber at a constant temperature of 30° C. using a warm air circulating device (Harvard Apparatus). […] After 30 minutes, PET imaging was performed using a Concord small animal PET imager. Images were then collected and reconstructed. Analyses of separate regions of interest (ROI) drawn over the area of the tumors (and muscle) were conducted and glucose uptake was calculated as % injected dose per gram of tissue against known phantom standards.

H441 xenografts = experiment: 18F-FDG-PET imaging of H441 xenografts; format: in vivo, athymic nu/nu mice; settings: 60 mg/kg oral; any time point evaluated (2, 4, 24 hours)
Protocol: as §3

T1 sequence (P08069 31-1367): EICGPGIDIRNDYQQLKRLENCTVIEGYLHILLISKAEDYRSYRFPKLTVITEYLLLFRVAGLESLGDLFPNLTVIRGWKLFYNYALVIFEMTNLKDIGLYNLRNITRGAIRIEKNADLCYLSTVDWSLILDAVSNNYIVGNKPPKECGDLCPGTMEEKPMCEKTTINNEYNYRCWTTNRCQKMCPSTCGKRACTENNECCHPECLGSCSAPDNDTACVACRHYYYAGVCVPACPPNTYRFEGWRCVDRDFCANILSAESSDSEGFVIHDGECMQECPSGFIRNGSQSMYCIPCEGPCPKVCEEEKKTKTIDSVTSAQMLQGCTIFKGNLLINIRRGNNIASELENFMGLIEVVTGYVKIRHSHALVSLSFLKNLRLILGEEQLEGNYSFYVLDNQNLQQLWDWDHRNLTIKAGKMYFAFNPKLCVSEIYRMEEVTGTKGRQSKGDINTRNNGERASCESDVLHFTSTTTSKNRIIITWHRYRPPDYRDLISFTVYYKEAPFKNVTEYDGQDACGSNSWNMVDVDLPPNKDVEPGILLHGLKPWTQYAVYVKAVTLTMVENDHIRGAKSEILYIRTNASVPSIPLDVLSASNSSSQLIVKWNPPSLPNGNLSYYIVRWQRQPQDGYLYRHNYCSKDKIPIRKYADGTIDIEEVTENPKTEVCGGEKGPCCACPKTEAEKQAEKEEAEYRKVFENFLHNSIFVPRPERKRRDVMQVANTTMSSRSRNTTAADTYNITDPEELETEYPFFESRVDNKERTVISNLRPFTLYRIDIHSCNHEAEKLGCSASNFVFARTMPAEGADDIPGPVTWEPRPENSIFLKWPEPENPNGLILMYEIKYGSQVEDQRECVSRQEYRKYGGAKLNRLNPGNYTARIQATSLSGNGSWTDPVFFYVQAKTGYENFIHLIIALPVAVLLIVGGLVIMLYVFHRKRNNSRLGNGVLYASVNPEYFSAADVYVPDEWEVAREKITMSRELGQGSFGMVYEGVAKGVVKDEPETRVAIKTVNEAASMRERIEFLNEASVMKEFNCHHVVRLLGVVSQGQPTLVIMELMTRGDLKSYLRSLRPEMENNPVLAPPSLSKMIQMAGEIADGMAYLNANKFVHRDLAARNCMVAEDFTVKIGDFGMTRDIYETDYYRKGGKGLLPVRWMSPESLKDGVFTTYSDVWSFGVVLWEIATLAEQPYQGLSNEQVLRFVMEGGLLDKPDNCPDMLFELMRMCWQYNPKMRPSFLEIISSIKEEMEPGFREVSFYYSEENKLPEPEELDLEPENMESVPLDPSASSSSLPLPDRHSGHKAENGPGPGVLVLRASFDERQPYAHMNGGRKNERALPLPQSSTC
T2 sequence (P08069 31-1367): as above
Sequence of IGF-1R (P08069 31-1367): as above

Structure (SMILES): C#Cc1cccc(Nc2ncnc3cc(OCCOC)c(OCCOC)cc23)c1 [erlotinib, reference compound]
- 3H-2-deoxyglucose uptake (FIG. 16) (H292 cells [1]): rapid inhibition

Structure (SMILES): C=C1[C@@H](C)[C@H]2[C@H](Cc3ccccc3)NC(=O)[C@]23OC(=O)/C=C/[C@H](O)CCC[C@@H](C)C/C=C/[C@H]3[C@@H]1O [Cytochalasin B, reference compound]
- 3H-2-deoxyglucose uptake, positive control (H292 cells [1]; 2.5-10 μM, 30 minutes post treatment (FIG. 3)): significantly inhibits uptake

- pIGF-1R (pIGF-1R; 30 minutes of exposure, all doses (FIG. 12)): target inhibition
- pIGF-1R, time course (pIGF-1R; 2 hours, all concentrations (10 nM, 100 nM, 500 nM)): reduction
- inhibition at 60 mg/kg (phospho-IGF1-R; 2 and 4 hours post treatment): ~85%
- inhibition at 60 mg/kg (phospho-IGF1-R; 24 hours): 70%
- target inhibition of pIGF-1R, RTK array (FIGS. 17 and 18) (phospho-IGF1-R; single 60 mg/kg treatment, 2, 4 and 24 hours): strong target inhibition
Structure (SMILES): CC1(O)CC(c2nc(-c3ccc4ccc(-c5ccccc5)nc4c3)c3c(N)nccn23)C1 (stereo not drawn) [OSI-906, cis-3-[8-amino-1-(2-phenyl-quinolin-7-yl)-imidazo[1,5-a]pyrazin-3-yl]-1-methylcyclobutanol]
- tumor growth compared to vehicle controls (NCI H292 xenografts): significant tumor growth inhibition
- 3H-2-deoxyglucose uptake (FIG. 16) (H292 cells [1]): rapid inhibition
- 3H-2-deoxyglucose uptake, onset (H292 cells [1]; as early as five minutes post treatment, increasing concentrations): significant decrease
- tumor growth compared to vehicle-treated cohort (NCI-H441 xenografts): do not exhibit a difference in tumor growth
- 3H-2-deoxyglucose uptake (FIG. 13) (NCI-H441 cells): dose dependent decrease
- inhibition of IGF-1R (IGF-1R): greater than 50%
- pIGF-1R, time course (pIGF-1R; through 24 hours, 10 nM, 100 nM, 500 nM): inhibition remains through 24 hours in all but the lowest, 10 nM concentration
- cell death by FACS analysis (H292 cells [2]): no significant cell death
- decrease of 18F-FDG uptake in tumor samples compared to vehicle control animals (H292 tumors): 20-50%
- signal intensity of phospho-AKT, phospho-S6 and AS160 bands (pAKT, pS6, pERK, AS160; 0.0 μM-30 μM, 30 minutes after drug treatment (FIG. 11)): dose dependent response with respect to decreased signal intensity
- downstream targets pERK, pAKT, pS6, AS160 (pAKT, pS6, pERK, AS160; 30 minutes of exposure (FIG. 12)): inhibition of downstream targets
- phospho-AKT, phospho-S6, phospho-ERK and AS160 in tumor lysates (pERK, pAKT, pS6, AS160; 4 hours post treatment, compared to untreated control lysates): decreased signal intensity
- pERK, pAKT, pS6 in tumor lysates (pERK, pAKT, pS6, AS160; 24 hours post dose): return to baseline levels
- 18F-FDG uptake (PET SUV) (H292 xenografts): significant decrease
- 18F-FDG uptake (PET SUV) (H441 xenografts): do not demonstrate a significant change
